Reference: PubChem BioAssay (NCI)
Values joined by “and” are separate entries in the source; they are usually repeats but may differ in a detail not shown here. Equal entries are not always repeated.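 Cultured in 96-well plates, cells were exposed to test compound for 48 hours across five concentrations. GI50: concentration for 50% inhibition of growth. The concentration for full growth arrest is given as TGI.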

What was measured:
Assay in all cases: DTP human tumour cell line panel, 48 h
OVCAR-8 ovarian = test system: OVCAR-8 ovarian
IGROV1 ovarian = test system: IGROV1 ovarian
OVCAR-5 ovarian = test system: OVCAR-5 ovarian
MOLT-4 leukemia = test system: MOLT-4 leukemia
NCI-H23 lung = test system: NCI-H23 lung
SF-295 CNS = test system: SF-295 CNS
OVCAR-4 ovarian = test system: OVCAR-4 ovarian
A498 renal = test system: A498 renal
786-0 renal = test system: 786-0 renal
SN12C renal = test system: SN12C renal

Structure (SMILES) | GI50 (OVCAR-8 ovarian) | TGI (OVCAR-8 ovarian) | GI50 (IGROV1 ovarian) | TGI (IGROV1 ovarian) | GI50 (OVCAR-5 ovarian) | TGI (OVCAR-5 ovarian) | GI50 (MOLT-4 leukemia) | TGI (MOLT-4 leukemia) | GI50 (NCI-H23 lung) | TGI (NCI-H23 lung) | GI50 (SF-295 CNS) | TGI (SF-295 CNS) | GI50 (OVCAR-4 ovarian) | TGI (OVCAR-4 ovarian) | GI50 (A498 renal) | TGI (A498 renal) | GI50 (786-0 renal) | TGI (786-0 renal) | GI50 (SN12C renal) | TGI (SN12C renal)
NC(=O)c1cccc(Nc2nccc(Nc3cccc(F)c3)n2)c1 | 9490 nM | > 25 µM | 6210 nM | > 21.1 µM | 8.07 µM | > 25 µM | 13100 nM | > 25 µM | 10600 nM | > 25 µM | 9.82 µM | > 25 µM | 4.37 µM | > 25 µM | 4300 nM | 16 µM | 9150 nM | > 25 µM | 7980 nM | > 25 µM
COc1c(Br)cc(Br)c(OC)c1-c1[nH]c(Br)c(Br)c1Br | – | 25 µM | – | 20.6 µM | – | 29 µM | – | 21.8 µM | – | 13.8 µM | – | 17.4 µM | – | 16.3 µM | – | 26 µM | – | 22.8 µM | – | 21.6 µM
CC1(C)N=C(N)N=C(N)N1c1ccc(OCC(=O)Nc2ccccc2)c(Cl)c1 | 6690 nM | > 100 µM | 688 nM | > 100 µM | > 100 µM | > 100 µM | 1190 nM | > 59.6 µM | 2960 nM | > 100 µM | 0.702 µM | > 100 µM | 15.8 µM | > 100 µM | > 58100 nM | > 100 µM | 11100 nM | > 100 µM | 647 nM | > 100 µM
CC1(c2ccccc2)CC(c2ccccc2)=NO1 (centres undefined) | – | > 100 µM | – | > 100 µM | – | > 100 µM | – | > 100 µM | – | > 100 µM | – | > 100 µM | – | > 100 µM | – | > 100 µM | – | > 100 µM | – | > 100 µM
CC/C(=N\NS(=O)(=O)c1ccccc1)c1ccccc1 | – | > 100 µM | – | > 100 µM | – | > 100 µM | – | > 100 µM | – | > 100 µM | – | > 100 µM | – | > 100 µM | – | > 100 µM | – | > 100 µM | – | > 100 µM
O=c1c(Cl)c(Cl)cnn1CCc1ccncc1 | – | 43.1 µM | – | 33.8 µM | – | 33.6 µM | – | > 100 µM | – | 34.1 µM | – | 83 µM | – | 33 µM | – | 44.6 µM | – | 59.6 µM | – | 33.6 µM
O=S1(=O)NCCCN1CCNc1nccc(-c2c(-c3cccc(O)c3)nc3sccn23)n1 | 2860 nM | > 100 µM | 11300 nM | 64.4 µM | 49.8 µM | > 100 µM | 22900 nM | > 77.6 µM | 29000 nM | > 100 µM | 51.9 µM | > 100 µM | 17.5 µM | > 96.1 µM | 15500 nM | 45.9 µM | 14400 nM | > 100 µM | 10200 nM | > 100 µM
CCC1=C[C@@H]2CN(C1)Cc1c([nH]c3ccccc13)[C@@](C(=O)OC)(c1cc3c(cc1OC)N(C)[C@H]1[C@@](O)(C(=O)OC)[C@H](OC(C)=O)[C@]4(CC)[C@@H]5C[C@@H]5CN5CC[C@]31[C@@H]54)C2 | < 5 nM and 29.2 nM | 6.9 µM and 12.7 µM | – | 6.87 µM and 14.5 µM | – | 16.9 µM and 73.9 µM | < 5 nM | – | < 5 nM and 49.2 nM | 10.2 µM and 38.4 µM | < 0.005 µM | < 0.005 µM and 0.011 µM | < 0.005 µM | 10.7 µM | < 5 nM and 14.4 nM | 0.0112 µM and 0.0857 µM | < 5 nM and 13.9 nM | 1.58 µM and 14.2 µM | – | 7.54 µM and 18.5 µM
CCCCCCCCCCN=C(c1ccc(N(C)C)cc1)c1ccc(N(C)C)cc1 | 2090 nM | > 59.5 µM | 917 nM | > 100 µM | 7.65 µM | > 100 µM | 416 nM | 30.8 µM | 1580 nM | > 75.4 µM | 0.63 µM | 13.7 µM | 3.29 µM | > 83.6 µM | 457 nM | 6.33 µM | 3610 nM | 36.8 µM | 830 nM | 53.4 µM
CC1(C)CC[C@H](C2=CC(=O)c3c(O)ccc(O)c3C2=O)O1 | 2270 nM and 675 nM and 581 nM | 20.4 µM and 3.44 µM and 2.12 µM | 4930 nM and 2480 nM and 1610 nM | 9.58 µM and 5.31 µM and 3.21 µM | 4.43 µM and 2 µM and 1.91 µM | 8.24 µM and 3.56 µM and 3.57 µM | 487 nM and 160 nM and 137 nM | – | 2140 nM and 836 nM and 639 nM | 6.41 µM and 2.07 µM and 2.36 µM | 8.48 µM and 2.4 µM and 3.24 µM | 22.1 µM and 6.73 µM and 8.11 µM | 1.86 µM and 0.311 µM and 0.192 µM | 4.3 µM and 1.63 µM and 0.505 µM | 6810 nM and 2570 nM and 1710 nM | 13.6 µM and 6.05 µM and 3.58 µM | 829 nM and 1280 nM and 237 nM | 2.07 µM and 2.8 µM and 0.504 µM | 2600 nM and 1510 nM and 382 nM | –
CCSc1nc(N)c2cn[nH]c2n1 | 48700 nM | > 100 µM | 35900 nM | > 100 µM | 21.8 µM | 63.1 µM | 39400 nM | > 100 µM | 20700 nM | 58.9 µM | 32.1 µM | 85.3 µM | 32.7 µM | 89 µM | 20700 nM | 50.2 µM | 40200 nM | > 100 µM | 28700 nM | 70.9 µM
OC(CN1CC1)C(O)CN1CC1 (centres undefined) | > 50 µg/mL | > 50 µg/mL | > 50 µg/mL | > 50 µg/mL | > 50 µg/mL | > 50 µg/mL | > 50 µg/mL | > 50 µg/mL | > 50 µg/mL | > 50 µg/mL | > 50 µg/mL | > 50 µg/mL | > 50 µg/mL | > 50 µg/mL | > 50 µg/mL | > 50 µg/mL | > 50 µg/mL | > 50 µg/mL | > 50 µg/mL | > 50 µg/mL
CC(=O)OC1COC(n2c(=S)n(-c3ccccc3)c(=O)c3cc(Br)ccc32)C(OC(C)=O)C1OC(C)=O (centres undefined) | – | > 100 µM | – | > 100 µM | – | > 100 µM | – | > 100 µM | – | > 100 µM | – | > 100 µM | – | 31.6 µM | – | > 100 µM | – | > 100 µM | – | > 100 µM
CCC(=C(c1ccc(OCCCN(C)C)cc1)c1ccc(OCCCN(C)C)cc1)c1ccc(Cl)cc1 | 933 nM | 3.37 µM | 429 nM | 1.15 µM | 2.48 µM | 4.8 µM | 379 nM | 0.948 µM | 2500 nM | 4.98 µM | 2.35 µM | 4.61 µM | 0.922 µM | 2.41 µM | 1700 nM | 4.39 µM | 350 nM | 0.759 µM | 2180 nM | 4.55 µM
